Source: the supplement of paper PMC11451515

System: P12-Ichikawa
Test: cell viability relative to DMSO control; higher = less cytotoxic
Conditions: 48 h
Summary of the method: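 Viability values are per-plate percentages of DMSO wells, with background from cell-free wells. Library compounds in DMSO were pin-dosed, in an 11-point threefold series from 47 μM to 0.79 nM, onto NOMO1 or SEM (500 cells/well) or P12-Ichikawa (1000 cells/well) leukemia cells in 1536-well plates (5 μl). Those cells had been adapted for at least four passages in each medium, and CellTiter-Glo One luminescence was read after 48 h at 37°C.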

[1] = HPLM + 10% dialyzed FBS, 0.000781 µM
[2] = HPLM + 10% dialyzed FBS, 0.00234 µM
[3] = HPLM + 10% dialyzed FBS, 0.00702 µM
[4] = HPLM + 10% dialyzed FBS, 0.0211 µM
[5] = HPLM + 10% dialyzed FBS, 0.0632 µM
[6] = HPLM + 10% dialyzed FBS, 0.19 µM
[7] = HPLM + 10% dialyzed FBS, 0.569 µM
[8] = HPLM + 10% dialyzed FBS, 1.71 µM
[9] = HPLM + 10% dialyzed FBS, 5.12 µM
[10] = HPLM + 10% dialyzed FBS, 15.4 µM
[11] = HPLM + 10% dialyzed FBS, 46.1 µM
[12] = RPMI 5 mM glucose + 10% FBS, 0.000781 µM
[13] = RPMI 5 mM glucose + 10% FBS, 0.00234 µM
[14] = RPMI 5 mM glucose + 10% FBS, 0.00702 µM
[15] = RPMI 5 mM glucose + 10% FBS, 0.0211 µM
[16] = RPMI 5 mM glucose + 10% FBS, 0.0632 µM
[17] = RPMI 5 mM glucose + 10% FBS, 0.19 µM
[18] = RPMI 5 mM glucose + 10% FBS, 0.569 µM
[19] = RPMI 5 mM glucose + 10% FBS, 1.71 µM
[20] = RPMI 5 mM glucose + 10% FBS, 5.12 µM
[21] = RPMI 5 mM glucose + 10% FBS, 15.4 µM
[22] = RPMI 5 mM glucose + 10% FBS, 46.1 µM
[23] = RPMI 5 mM glucose + 10% dialyzed FBS, 0.000781 µM
[24] = RPMI 5 mM glucose + 10% dialyzed FBS, 0.00234 µM
[25] = RPMI 5 mM glucose + 10% dialyzed FBS, 0.00702 µM
[26] = RPMI 5 mM glucose + 10% dialyzed FBS, 0.0211 µM
[27] = RPMI 5 mM glucose + 10% dialyzed FBS, 0.0632 µM
[28] = RPMI 5 mM glucose + 10% dialyzed FBS, 0.19 µM
[29] = RPMI 5 mM glucose + 10% dialyzed FBS, 0.569 µM
[30] = RPMI 5 mM glucose + 10% dialyzed FBS, 1.71 µM
[31] = RPMI 5 mM glucose + 10% dialyzed FBS, 5.12 µM
[32] = RPMI 5 mM glucose + 10% dialyzed FBS, 15.4 µM
[33] = RPMI 5 mM glucose + 10% dialyzed FBS, 46.1 µM

Structure (SMILES) | cell viability [1] | cell viability [2] | cell viability [3] | cell viability [4] | cell viability [5] | cell viability [6] | cell viability [7] | cell viability [8] | cell viability [9] | cell viability [10] | cell viability [11] | cell viability [12] | cell viability [13] | cell viability [14] | cell viability [15] | cell viability [16] | cell viability [17] | cell viability [18] | cell viability [19] | cell viability [20] | cell viability [21] | cell viability [22] | cell viability [23] | cell viability [24] | cell viability [25] | cell viability [26] | cell viability [27] | cell viability [28] | cell viability [29] | cell viability [30] | cell viability [31] | cell viability [32] | cell viability [33]
COc1ccc(-c2ccc3ncc4c(c3c2)n(-c2ccc(N3CCNCC3)c(C(F)(F)F)c2)c(=O)n4C)cn1 | 99.5% | 92.5% | 79.1% | 74.1% | 72.5% | 48.5% | 48.9% | 40.1% | 30% | 4.22% | 3.22% | 81.7% | 73.2% | 72.3% | 64.2% | 59.4% | 34.7% | 22% | 8.29% | 6.08% | 4.14% | 4% | 86.1% | 91.5% | 63% | 65.8% | 60.9% | 47.1% | 34% | 5.19% | 5.18% | 4.63% | 3.63%
CN(C)[S+](=O)([O-])c1ccc2c(c1)C(=Cc1cc3c([nH]1)CCCC3)C(=O)N2 | 124% | 114% | 122% | 121% | 123% | 117% | 125% | 122% | 111% | 110% | 112% | – | – | – | – | – | – | – | – | – | – | – | 118% | 125% | 121% | 116% | 114% | 125% | 128% | 124% | 122% | 106% | 108%
COC(=O)Nc1cc(Nc2cc(NC3CC3)c3ncc(C#N)n3n2)c(Cl)c(N2CCN(C)CC2)c1 | 107% | 102% | 102% | 111% | 106% | 97.4% | 106% | 103% | 76.8% | 65.3% | 3.92% | 104% | 104% | 102% | 106% | 105% | 108% | 105% | 92.8% | 67% | 41.5% | 4.51% | 106% | 108% | 111% | 108% | 109% | 102% | 104% | 95% | 63.7% | 36.1% | 4.2%
Cc1ccccc1C(=O)c1ccc(Nc2ccc(Br)cc2N)cc1Cl | 117% | 122% | 119% | 104% | 114% | 118% | 114% | 114% | 105% | 98.6% | 51.5% | 117% | 122% | 121% | 110% | 119% | 108% | 117% | 113% | 111% | 108% | 53.7% | 117% | 121% | 127% | 119% | 122% | 118% | 117% | 111% | 105% | 89% | 35.5%
O=C1[C@H](Cc2ccc(O)cc2)N2C(=O)CCN(C(=O)NCc3ccccc3)[C@H]2CN1Cc1cccc2ccccc12 | 86.7% | 90.8% | 85.3% | 89.4% | 87.9% | 88.1% | 85.4% | 85.5% | 91.2% | 47.9% | 85.8% | 76.6% | 84.4% | 76.3% | 83% | 88.6% | 87.7% | 83% | 74% | 84.1% | 35% | 84.2% | 77.4% | 78.2% | 80.4% | 79.5% | 85% | 82.1% | 77.3% | 75.4% | 81.1% | 33.2% | 72.5%
CN[C@@H]1[C@@H](O)[C@@H](O[C@@H]2[C@@H](O)[C@H](O[C@H]3O[C@H](CN)[C@@H](O)[C@H](O)[C@H]3O)[C@@H](N)C[C@H]2NC(=O)[C@@H](O)CN)OC[C@]1(C)O | 123% | 131% | 124% | 122% | 128% | 120% | 126% | 113% | 110% | 108% | 108% | – | – | – | – | – | – | – | – | – | – | – | – | – | – | – | – | – | – | – | – | – | –
C[C@](Cc1c[nH]c2ccccc12)(NC(=O)OC1C2CC3CC(C2)CC1C3)C(=O)NC[C@H](NC(=O)CCC(=O)O)c1ccccc1 (stereo partly drawn) | 112% | 129% | 125% | 130% | 131% | 128% | 138% | 132% | 122% | 129% | 122% | – | – | – | – | – | – | – | – | – | – | – | – | – | – | – | – | – | – | – | – | – | –
CC(C)C1NC(=O)C(NC(=O)C2=C3\N=C\4/C(=C(C)\C(=O)\C(=C4C(=O)NC5C(C)OC(=O)C(C(C)C)N(C)C(=O)CN(C)C(=O)C6CCCN6C(=O)C(NC5=O)C(C)C)N)OC3=C(C)C=C2)C(C)OC(=O)C(C(C)C)N(C)C(=O)CN(C)C(=O)C7CCCN7C1=O (stereo not drawn) | 8.89% | 7.61% | 7.74% | 7.98% | 8.48% | 7.48% | 8.02% | 5.74% | 3.17% | 4.3% | 1.52% | 7.97% | 8.99% | 7.91% | 6.03% | 5.96% | 6.1% | 5.29% | 3.26% | 1.15% | 2.04% | 1.27% | 9.93% | 10.6% | 9.2% | 10.8% | 7.89% | 8.14% | 8.28% | 7.16% | 6.45% | 4.57% | 3.47%
N[S+]([O-])(=O)C1=C(Cl)C=C2\N=C/N[S+]([O-])(=O)C2=C1 | 101% | 100% | 102% | 97.5% | 106% | 108% | 108% | 119% | 110% | 106% | 109% | 97.3% | 106% | 107% | 113% | 117% | 114% | 112% | 122% | 115% | 120% | 122% | 101% | 96.2% | 111% | 115% | 114% | 110% | 114% | 100% | 115% | 115% | 109%
CC(C)(O)CC[C@@H](O)[C@](C)(O)[C@H]1CC[C@@]2(O)C/3=C/C(=O)[C@@H]4C[C@@H](O)[C@@H](O)C[C@]4(C)[C@H]3CC[C@]12C | 100% | 103% | 94.5% | 96.6% | 102% | 98.4% | 88.6% | 93.6% | 89.2% | 89.6% | 87.4% | 90.7% | 96.3% | 93.4% | 96.3% | 86.7% | 104% | 92.2% | 94.1% | 88% | 86% | 96.8% | 95% | 90.6% | 90.8% | 89% | 94.6% | 89.2% | 88.8% | 86.9% | 91.2% | 83.3% | 89.4%
CC[S+](=O)([O-])c1cccc(-c2cc(C(=O)NC3CCN(C)CC3)c(C)c3[nH]c4ncc(C)cc4c23)c1 | 121% | 122% | 123% | 128% | 123% | 112% | 15.7% | 19.5% | 19% | 26.9% | 34.9% | – | – | – | – | – | – | – | – | – | – | – | – | – | – | – | – | – | – | – | – | – | –
CN[C@@H](C)[C@H]1[C@H](O)C[C@@]2(C)[C@@H]3CC[C@H]4C(C)(C)[C@@H](NC)CC[C@@]45C[C@@]35CC[C@]12C | 92.3% | 97.3% | 84.8% | 98.4% | 96.5% | 100% | 98.8% | 102% | 103% | 97% | 96.3% | 95.4% | 89% | 81.6% | 94.4% | 103% | 98.8% | 89.3% | 105% | 81.9% | 105% | 91.9% | 85% | 91% | 83.8% | 90.1% | 93.2% | 98.8% | 89.3% | 92.6% | 81.7% | 93.8% | 79.4%
C[C@]12COC(=O)C[C@@H]1CC[C@@H]1[C@@H]2CC[C@@]2(C)[C@H]1CC[C@]2(C)O | 105% | 107% | 117% | 107% | 110% | 102% | 107% | 103% | 102% | 100% | 88.1% | 106% | 109% | 101% | 100% | 107% | 105% | 113% | 98.3% | 101% | 103% | 97.4% | 101% | 98.6% | 97.5% | 104% | 92.3% | 101% | 99.2% | 104% | 94.1% | 98.7% | 95.2%
ClC1=CC=C(C=C1)C(C#N)C2=C(Cl)C=C(C=C2Cl)N3\N=C/C(=O)NC3=O (stereo not drawn) | 110% | 106% | 106% | 110% | 110% | 115% | 104% | 110% | 104% | 86.3% | 86.4% | 91% | 94.7% | 93.7% | 94.7% | 93.8% | 101% | 106% | 98.7% | 101% | 85.1% | 82.2% | 95.7% | 99.3% | 104% | 100% | 105% | 102% | 93.7% | 108% | 96.3% | 79.6% | 76%
CN1CCN(C2=Nc3cc(Cl)ccc3Nc3ccccc32)CC1 | 102% | 105% | 108% | 108% | 91.6% | 115% | 116% | 116% | 106% | 104% | 94.4% | 91.6% | 120% | 115% | 120% | 95.8% | 125% | 107% | 115% | 124% | 108% | 108% | 100% | 103% | 103% | 102% | 96.7% | 112% | 109% | 116% | 105% | 108% | 93.2%
